Assay results from PubChem BioAssay (NCI).
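Five concentrations, 48 hours, 96-well plates. At the TGI there is no net growth.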

Columns and labels:
Assay in all cases: growth of human tumour cells (NCI), 48 h
NCI-H460 lung = test system: NCI-H460 lung
LOX IMVI melanoma = test system: LOX IMVI melanoma
HCT-116 colon = test system: HCT-116 colon
NCI-H226 lung = test system: NCI-H226 lung
HOP-92 NSCLC = test system: HOP-92 NSCLC
HT29 colon = test system: HT29 colon
TK-10 renal = test system: TK-10 renal
SK-OV-3 ovarian = test system: SK-OV-3 ovarian
UACC-62 melanoma = test system: UACC-62 melanoma
MOLT-4 leukemia = test system: MOLT-4 leukemia
UO-31 renal = test system: UO-31 renal
KM12 colon = test system: KM12 colon
UACC-257 melanoma = test system: UACC-257 melanoma
HS 578T breast = test system: HS 578T breast
SK-MEL-5 melanoma = test system: SK-MEL-5 melanoma
M14 melanoma = test system: M14 melanoma
SK-MEL-2 melanoma = test system: SK-MEL-2 melanoma
CAKI-1 renal = test system: CAKI-1 renal
A549 NSCLC = test system: A549 NSCLC
NCI-H522 lung = test system: NCI-H522 lung
ACHN renal = test system: ACHN renal
MALME-3M melanoma = test system: MALME-3M melanoma
NCI-H23 lung = test system: NCI-H23 lung
IGROV1 ovarian = test system: IGROV1 ovarian
MDA-MB-231 breast = test system: MDA-MB-231 breast
SF-268 CNS = test system: SF-268 CNS
T-47D breast = test system: T-47D breast
SK-MEL-28 melanoma = test system: SK-MEL-28 melanoma
SR leukemia = test system: SR leukemia
DU-145 prostate = test system: DU-145 prostate
OVCAR-4 ovarian = test system: OVCAR-4 ovarian
MDA-N = test system: MDA-N
RXF 393 renal = test system: RXF 393 renal
MDA-MB-435 = test system: MDA-MB-435
SW-620 colon = test system: SW-620 colon
OVCAR-5 ovarian = test system: OVCAR-5 ovarian
SN12C renal = test system: SN12C renal
CCRF-CEM leukemia = test system: CCRF-CEM leukemia
U251 CNS = test system: U251 CNS
A498 renal = test system: A498 renal
OVCAR-3 ovarian = test system: OVCAR-3 ovarian
HL-60(TB) leukemia = test system: HL-60(TB) leukemia
SNB-19 CNS = test system: SNB-19 CNS
PC-3 prostate = test system: PC-3 prostate
NCI/ADR-RES ovarian = test system: NCI/ADR-RES ovarian
BT-549 breast = test system: BT-549 breast
COLO 205 colon = test system: COLO 205 colon
SF-539 CNS = test system: SF-539 CNS
MCF7 breast = test system: MCF7 breast
HCT-15 colon = test system: HCT-15 colon
HOP-62 NSCLC = test system: HOP-62 NSCLC
EKVX NSCLC = test system: EKVX NSCLC
SF-295 CNS = test system: SF-295 CNS
OVCAR-8 ovarian = test system: OVCAR-8 ovarian
HCC-2998 colon = test system: HCC-2998 colon
K-562 leukemia = test system: K-562 leukemia
SNB-75 CNS = test system: SNB-75 CNS
RPMI-8226 leukemia = test system: RPMI-8226 leukemia
786-0 renal = test system: 786-0 renal

Compound O=C1C=CC(=O)c2c(O)c(N3CCSCC3)c(Cl)c(O)c21 has a TGI (NCI-H460 lung) of 1.71 µM, a TGI (LOX IMVI melanoma) of 0.362 µM and a TGI (HCT-116 colon) of 1.03 µM. For the same compound, the TGI (NCI-H226 lung) was 1.82 µM, the TGI (HOP-92 NSCLC) was 2.21 µM and the TGI (HT29 colon) was 1.47 µM. The TGI (TK-10 renal) was 1.56 µM, the TGI (SK-OV-3 ovarian) was 4 µM and the TGI (UACC-62 melanoma) was 1.75 µM. The TGI (MOLT-4 leukemia) was 3.82 µM, the TGI (UO-31 renal) was 1.81 µM and the TGI (KM12 colon) was 1.38 µM. It also gave a TGI (UACC-257 melanoma) of 2.88 µM, a TGI (HS 578T breast) of 2.18 µM and a TGI (SK-MEL-5 melanoma) of 1.69 µM. It also gave a TGI (M14 melanoma) of 1.05 µM, a TGI (SK-MEL-2 melanoma) of 0.603 µM and a TGI (CAKI-1 renal) of 1.73 µM. For the same compound, the TGI (A549 NSCLC) was 1.79 µM, the TGI (NCI-H522 lung) was 1.29 µM and the TGI (ACHN renal) was 1.48 µM. For the same compound, the TGI (MALME-3M melanoma) was 1.34 µM, the TGI (NCI-H23 lung) was 0.689 µM and the TGI (IGROV1 ovarian) was 2 µM. The TGI (MDA-MB-231 breast) was 1.03 µM, the TGI (SF-268 CNS) was 1.74 µM and the TGI (T-47D breast) was 2.29 µM. It also gave a TGI (SK-MEL-28 melanoma) of 2.16 µM, a TGI (SR leukemia) of 1.24 µM and a TGI (DU-145 prostate) of 2.02 µM. It also gave a TGI (OVCAR-4 ovarian) of 1.77 µM, a TGI (MDA-N) of 1.48 µM and a TGI (RXF 393 renal) of 0.781 µM. It also gave a TGI (MDA-MB-435) of 1.94 µM and a TGI (SW-620 colon) of 0.548 µM.
CC(C)(C)OC(=O)NC(Cc1ccccc1)C(=O)N[C@H]1c2ccsc2/C(=N/O)[C@H]1O (stereo not given in full) was tested, and the TGI (NCI-H460 lung) was over 100 µM, the TGI (OVCAR-5 ovarian) was over 100 µM and the TGI (LOX IMVI melanoma) was over 100 µM. It also gave a TGI (SN12C renal) of over 100 µM, a TGI (CCRF-CEM leukemia) of over 100 µM and a TGI (U251 CNS) of over 100 µM. It also gave a TGI (HCT-116 colon) of over 100 µM, a TGI (NCI-H226 lung) of over 100 µM and a TGI (HOP-92 NSCLC) of over 100 µM. It also gave a TGI (HT29 colon) of over 100 µM, a TGI (TK-10 renal) of over 100 µM and a TGI (SK-OV-3 ovarian) of over 100 µM. For the same compound, the TGI (A498 renal) was over 100 µM, the TGI (UACC-62 melanoma) was over 100 µM and the TGI (OVCAR-3 ovarian) was over 100 µM. For the same compound, the TGI (MOLT-4 leukemia) was over 100 µM, the TGI (UO-31 renal) was over 100 µM and the TGI (HL-60(TB) leukemia) was over 100 µM. For the same compound, the TGI (UACC-257 melanoma) was over 100 µM, the TGI (SNB-19 CNS) was over 100 µM and the TGI (SK-MEL-5 melanoma) was over 100 µM. The TGI (PC-3 prostate) was over 100 µM, the TGI (NCI/ADR-RES ovarian) was over 100 µM and the TGI (BT-549 breast) was over 100 µM. For the same compound, the TGI (M14 melanoma) was over 100 µM, the TGI (SK-MEL-2 melanoma) was over 100 µM and the TGI (CAKI-1 renal) was over 100 µM. The TGI (A549 NSCLC) was over 100 µM, the TGI (COLO 205 colon) was over 100 µM and the TGI (SF-539 CNS) was over 100 µM. The TGI (MCF7 breast) was over 100 µM, the TGI (MALME-3M melanoma) was over 100 µM and the TGI (NCI-H23 lung) was over 100 µM. The TGI (HCT-15 colon) was over 100 µM, the TGI (IGROV1 ovarian) was over 100 µM and the TGI (MDA-MB-231 breast) was over 100 µM. It also gave a TGI (T-47D breast) of over 100 µM, a TGI (HOP-62 NSCLC) of over 100 µM and a TGI (SR leukemia) of over 100 µM. The TGI (DU-145 prostate) was over 100 µM, the TGI (EKVX NSCLC) was over 100 µM and the TGI (OVCAR-4 ovarian) was over 100 µM. For the same compound, the TGI (SF-295 CNS) was over 100 µM, the TGI (OVCAR-8 ovarian) was over 100 µM and the TGI (MDA-N) was over 100 µM. It also gave a TGI (HCC-2998 colon) of over 100 µM, a TGI (RXF 393 renal) of over 100 µM and a TGI (MDA-MB-435) of over 100 µM. It also gave a TGI (K-562 leukemia) of over 100 µM and a TGI (SW-620 colon) of over 100 µM.
COc1c(O)c(OC)c(C(=O)/C=C/c2ccccc2)c(O)c1OC showed a TGI (NCI-H460 lung) of 45.8 µM, a TGI (OVCAR-5 ovarian) of over 100 µM and a TGI (SNB-75 CNS) of over 100 µM. For the same compound, the TGI (LOX IMVI melanoma) was 87.2 µM, the TGI (SN12C renal) was 32.6 µM and the TGI (CCRF-CEM leukemia) was over 100 µM. The TGI (U251 CNS) was over 100 µM, the TGI (HCT-116 colon) was 34.5 µM and the TGI (NCI-H226 lung) was over 100 µM. The TGI (HOP-92 NSCLC) was 81 µM, the TGI (HT29 colon) was over 100 µM and the TGI (TK-10 renal) was over 100 µM. It also gave a TGI (SK-OV-3 ovarian) of over 100 µM, a TGI (OVCAR-3 ovarian) of 51.3 µM and a TGI (MOLT-4 leukemia) of over 100 µM. The TGI (HL-60(TB) leukemia) was over 100 µM, the TGI (KM12 colon) was over 100 µM and the TGI (UACC-257 melanoma) was over 100 µM. It also gave a TGI (SNB-19 CNS) of over 100 µM, a TGI (HS 578T breast) of over 100 µM and a TGI (SK-MEL-5 melanoma) of 46 µM. The TGI (PC-3 prostate) was over 100 µM, the TGI (NCI/ADR-RES ovarian) was 42.6 µM and the TGI (RPMI-8226 leukemia) was over 100 µM. The TGI (M14 melanoma) was over 100 µM, the TGI (786-0 renal) was over 100 µM and the TGI (SK-MEL-2 melanoma) was 61.2 µM. The TGI (CAKI-1 renal) was over 100 µM, the TGI (COLO 205 colon) was over 100 µM and the TGI (SF-539 CNS) was 86.7 µM. The TGI (MCF7 breast) was over 100 µM, the TGI (NCI-H522 lung) was 31.9 µM and the TGI (ACHN renal) was 58.1 µM. For the same compound, the TGI (MALME-3M melanoma) was over 100 µM, the TGI (HCT-15 colon) was over 100 µM and the TGI (IGROV1 ovarian) was over 100 µM. For the same compound, the TGI (MDA-MB-231 breast) was 72 µM, the TGI (SF-268 CNS) was over 100 µM and the TGI (T-47D breast) was 79.7 µM. For the same compound, the TGI (SK-MEL-28 melanoma) was over 100 µM, the TGI (DU-145 prostate) was over 100 µM and the TGI (EKVX NSCLC) was over 100 µM. It also gave a TGI (OVCAR-4 ovarian) of over 100 µM, a TGI (SF-295 CNS) of over 100 µM and a TGI (OVCAR-8 ovarian) of 38.1 µM. It also gave a TGI (MDA-N) of 46 µM, a TGI (HCC-2998 colon) of over 100 µM and a TGI (MDA-MB-435) of 66.2 µM. The TGI (K-562 leukemia) was over 100 µM and the TGI (SW-620 colon) was 66.2 µM.
